pIC50: −log10 of the molar value. ≈ marks a conversion by molar mass, not a printed value.
Tests used:
[1] = target: T1, 1,25-dihydroxyvitamin D(3) 24-hydroxylase, mitochondrial (Homo sapiens, UniProt Q07973); assay: Displacement of 25-hydroxy-[26,27-methyl-3H]-vitamin D3 from CYP24 in 1,25(OH)2D3-treated human DU-145 cells using 25-(OH)D3 as substrate pretreated with 1,25(OH)2D3 for 24 hrs followed by compound addition measured after 30 mins by HPLC analysis; type: cell-based
DU-145 = assay: Cytotoxicity against 1,25-(OH)2D3-treated human DU-145 cells assessed as cell growth inhibition incubated for 96 hrs and re-dosed after 48 hrs […] by MTT assay relative to control; type: functional; set-up: scale not given: the % may be the effect or the level left; settings: time 273 hrs
L02 = assay: Antiproliferative activity against human L02 cells assessed as cell growth inhibition at 500 uM for 24 to 72 hrs by MTT assay relative to control; type: functional; set-up: scale not given: the % may be the effect or the level left; settings: time 24-72 hrs
HepG2 [2] = assay: Downregulation of NF-kappaB in human HepG2 cells xenografted in BALB/c mouse at 160 mg/kg/day, ip for 19 days and measured after 24 hrs post last dose by immunohistochemical analysis relative to control; type: functional; settings: time 20 day
HepG2 [3] = assay: Downregulation of MMP2 in human HepG2 cells xenografted in BALB/c mouse at 160 mg/kg/day, ip for 19 days and measured after 24 hrs post last dose by immunohistochemical analysis relative to control; type: functional; settings: time 20 day
HepG2 [4] = assay: Downregulation of MMP9 in human HepG2 cells xenografted in BALB/c mouse at 160 mg/kg/day, ip for 19 days and measured after 24 hrs post last dose by immunohistochemical analysis relative to control; type: functional; settings: time 20 day
HepG2 [5] = assay: Downregulation of phosphorylated Akt in human HepG2 cells xenografted in BALB/c mouse at 160 mg/kg/day, ip for 19 days and measured after 24 hrs post last dose by immunohistochemical analysis relative to control; type: functional; settings: time 20 day
HepG2 [6] = assay: Antiproliferative activity against human HepG2 cells assessed as cell growth inhibition at 500 uM for 24 to 72 hrs by MTT assay relative to control; type: functional; set-up: scale not given: the % may be the effect or the level left; settings: time 24-72 hrs
A549 = assay: Antiproliferative activity against human A549 cells assessed as cell growth inhibition by MTT assay; type: functional, cell-based
MCF7 [7] = assay: Antiproliferative activity against human MCF7 cells assessed as cell growth inhibition by MTT assay; type: functional, cell-based
HepG2 [8] = assay: Antiproliferative activity against human HepG2 cells assessed as cell growth inhibition by MTT assay; type: functional, cell-based
HT-29 = assay: Antiproliferative activity against human HT-29 cells assessed as cell growth inhibition by MTT assay; type: functional, cell-based
T-24 = assay: Antiproliferative activity against human T24 cells assessed as cell growth inhibition by MTT assay; type: functional, cell-based
RAW264.7 = assay: Inhibition of ROS production in LPS-stimulated mouse RAW264.7 cells preincubated for 1 hr followed by LPS stimulation measured after 24 hrs by fluorometry; type: functional, cell-based
[9] = target: T2, Amine oxidase [flavin-containing] A (Homo sapiens, UniProt P21397); assay: Inhibition of recombinant human MAO-A assessed as measuring amount of 4-hydroxyquinoline using kynuramine as substrate incubated for 20 mins by fluorescence spectrophotometry
T2 sequence (P21397 whole entry): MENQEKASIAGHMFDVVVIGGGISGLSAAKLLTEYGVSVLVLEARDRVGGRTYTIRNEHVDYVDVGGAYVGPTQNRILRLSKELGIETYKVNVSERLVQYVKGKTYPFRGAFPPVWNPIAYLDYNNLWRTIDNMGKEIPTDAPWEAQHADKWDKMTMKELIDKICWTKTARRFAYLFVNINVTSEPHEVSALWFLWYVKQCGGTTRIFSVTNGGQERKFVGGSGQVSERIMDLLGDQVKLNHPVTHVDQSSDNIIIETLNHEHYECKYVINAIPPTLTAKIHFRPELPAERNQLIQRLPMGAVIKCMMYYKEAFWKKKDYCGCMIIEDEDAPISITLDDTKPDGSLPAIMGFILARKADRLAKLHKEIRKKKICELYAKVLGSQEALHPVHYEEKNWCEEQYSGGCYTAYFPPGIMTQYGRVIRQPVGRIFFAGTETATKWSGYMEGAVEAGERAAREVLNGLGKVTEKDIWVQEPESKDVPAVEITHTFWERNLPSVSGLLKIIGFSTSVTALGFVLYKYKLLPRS

Aspergillus fumigatus = assay: Antifungal activity against Aspergillus fumigatus MTCC 343 assessed as fungal growth inhibition; type: functional
Candida albicans = assay: Antifungal activity against Candida albicans MTCC 227 assessed as fungal growth inhibition; type: functional
[10] = Antioxidant activity assessed as superoxide scavenging activity incubated for 20 mins by absorbance based assay; type: functional
[11] = Antioxidant activity assessed as hydroxyl radical scavenging activity incubated for 30 mins by absorbance based assay; type: functional
[12] = Antioxidant activity assessed as DPPH radical scavenging activity incubated for 30 mins under dark condition by absorbance based assay; type: functional
[13] = test system: Trypanosoma brucei brucei; assay: Antitrypanosomal activity against Trypanosoma brucei brucei trypomastigotes assessed as parasite viability measured after 48 hrs by resazurin based fluorescence assay relative to control; type: functional
[14] = test system: Trypanosoma brucei brucei; assay: Antitrypanosomal activity against Trypanosoma brucei brucei trypomastigotes assessed as parasite viability measured after 48 hrs by resazurin based fluorescence assay; type: functional, organism-based
[15] = target: T2, Amine oxidase [flavin-containing] A; assay: Inhibition of MAO-A (unknown origin)
[16] = target: T3, Amine oxidase [flavin-containing] B (Homo sapiens, UniProt P27338); assay: Inhibition of MAO-B (unknown origin)
T3 sequence (P27338 whole entry): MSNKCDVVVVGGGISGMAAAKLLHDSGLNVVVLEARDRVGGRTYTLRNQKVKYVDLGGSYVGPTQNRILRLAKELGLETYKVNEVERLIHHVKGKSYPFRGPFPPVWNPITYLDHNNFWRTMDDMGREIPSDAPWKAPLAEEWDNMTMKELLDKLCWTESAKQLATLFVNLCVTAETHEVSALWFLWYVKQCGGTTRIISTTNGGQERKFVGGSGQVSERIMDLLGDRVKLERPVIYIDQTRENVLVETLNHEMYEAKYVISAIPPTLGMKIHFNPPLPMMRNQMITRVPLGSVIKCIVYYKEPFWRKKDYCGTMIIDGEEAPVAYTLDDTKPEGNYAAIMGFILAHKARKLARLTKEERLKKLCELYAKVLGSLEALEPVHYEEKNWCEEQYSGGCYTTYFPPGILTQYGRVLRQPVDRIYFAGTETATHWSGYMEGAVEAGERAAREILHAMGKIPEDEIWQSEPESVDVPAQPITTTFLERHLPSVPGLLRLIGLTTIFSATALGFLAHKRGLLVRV

Homo sapiens [17] = species on record: Homo sapiens; assay: Selectivity index, ratio of IC50 for MAO-A (unknown origin) to IC50 for MAO-B (unknown origin)
MCF7 [18] = assay: cells; type: functional, cell-based; settings: Homo sapiens, MCF7, 72 h
Description: Cytotoxicity against human MCF7 cells assessed as cell growth inhibition incubated for 3 days by MTT assay

[19] = target: T2, Amine oxidase [flavin-containing] A; assay: Inhibition of human MAO-A assessed as measuring amount of 4-hydroxyquinoline using kynuramine as substrate incubated for 20 mins by fluorescence spectrophotometry
Homo sapiens [20] = species on record: Homo sapiens; assay: Selectivity index, ratio of IC50 for human MAO-A to IC50 for human MAO-B
[21] = target: T3, Amine oxidase [flavin-containing] B; assay: Inhibition of human MAO-B assessed as measuring amount of 4-hydroxyquinoline using kynuramine as substrate incubated for 20 mins by fluorescence spectrophotometry
Nannizzia gypsea = assay: Antifungal activity against Microsporum gypseum C 115 2000 assessed as fungal growth inhibition by cup-plate method; type: functional
[22] = target: T1, 1,25-dihydroxyvitamin D(3) 24-hydroxylase, mitochondrial; assay: Inhibition of CYP24 (unknown origin); type: ADME
MDA-MB-231 = assay: Cytotoxicity against human MDA-MB-231 cells assessed as cell growth inhibition incubated for 72 hrs by alamar blue staining based assay; type: functional; settings: MDA-MB-231, 72 h

T1 sequence (Q07973 whole entry): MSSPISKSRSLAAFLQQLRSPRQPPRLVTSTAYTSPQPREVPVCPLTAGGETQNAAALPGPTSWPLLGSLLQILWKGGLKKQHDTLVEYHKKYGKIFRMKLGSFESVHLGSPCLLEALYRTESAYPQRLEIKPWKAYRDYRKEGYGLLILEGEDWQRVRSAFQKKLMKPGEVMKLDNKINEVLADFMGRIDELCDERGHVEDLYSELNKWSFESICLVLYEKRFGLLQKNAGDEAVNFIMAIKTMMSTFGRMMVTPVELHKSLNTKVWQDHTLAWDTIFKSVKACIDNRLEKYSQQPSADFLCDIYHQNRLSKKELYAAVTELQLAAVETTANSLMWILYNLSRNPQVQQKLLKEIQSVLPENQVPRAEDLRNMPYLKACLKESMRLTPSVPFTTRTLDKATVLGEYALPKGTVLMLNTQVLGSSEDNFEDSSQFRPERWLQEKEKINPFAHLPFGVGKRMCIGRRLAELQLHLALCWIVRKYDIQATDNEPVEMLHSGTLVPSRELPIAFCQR

## COc1ccc2c(c1)CCC(Cc1ccc(O)cc1)C2=O (configuration not stated)
[1]
  pIC50: 5.46
DU-145
  Activity: 25%

## COc1ccc2c(c1)C(=O)CCC2
L02
  Activity: >50%
HepG2 [2]
  Activity: 35.47%
HepG2 [3]
  Activity: 9.69%
HepG2 [4]
  Activity: 7.64%
HepG2 [5]
  Activity: 2.91%
HepG2 [6]
  Activity: >50%

## CC(C)c1ccc2c(c1)C(C)(C)CC(Sc1nc(N)n(S(=O)(=O)c3ccc(Cl)c([N+](=O)[O-])c3)n1)C2=O (configuration not stated)
A549
  pIC50: 5.00
MCF7 [7]
  pIC50: 4.54
HepG2 [8]
  pIC50: 4.67
HT-29
  pIC50: 4.65
T-24
  pIC50: 4.57

## Nc1ccc2c(c1)CC/C(=C\c1ccccc1F)C2=O
RAW264.7
  pIC50: 6.60

## O=C1CCCc2ccc(OCc3ccc(Cl)cc3)cc21
[9]
  pIC50: 7.44

## COc1ccc2c(c1)CC[C@@H]1C2=NN(C2=NC(=O)CS2)[C@@H]1c1ccccc1
Aspergillus fumigatus
  MIC: 12.5 µg/mL (≈ 33.1 µM)
Candida albicans
  MIC: 12.5 µg/mL (≈ 33.1 µM)

## O=C(/C=C/c1ccc(O)cc1)OC[C@H]1O[C@@H](Oc2ccc(O)c3c2C[C@H](O)CC3=O)C[C@@H](O)[C@@H]1O
[10]
  pIC50: 4.21
[11]
  pIC50: 5.70
[12]
  pIC50: 4.24

## O=C1/C(=C/c2ccccc2-c2ccccc2)CCc2cc(O)ccc21
[13]
  Activity: 0.7%
[14]
  pIC50: 6.40

## O=C1/C(=C/c2cccc(Br)c2)CCc2ccc(O)cc21
[15]
  pIC50: 6.12
[16]
  pIC50: 7.89
Homo sapiens [17]
  Ratio IC50: 58

## COc1ccc(C2C(C#N)=C(N)Oc3c2s/c(=N\c2ccc(Br)cc2)n3/N=C2\CCCc3cc(OC)ccc32)cc1 (configuration not stated)
MCF7 [18]
  pIC50: 6.03

## COc1ccc2c(c1)C(=O)/C(=C/c1ccc[nH]1)CC2
[19]
  pIC50: 5.71
Homo sapiens [20]
  Ratio IC50: 2.8
[21]
  pIC50: 6.15

## O=C1/C(=C/c2ccc(Cl)cc2)CCc2ccccc21
Nannizzia gypsea
  MIC: 3 µg/mL (≈ 11.2 µM)

## COc1ccc2c(c1)CC/C(=C\c1cc(C(F)(F)F)ccc1C(F)(F)F)C2=O
[22]
  pIC50: 6.05

## C[C@H]1CC(=O)c2c(O)cccc2[C@@H]1O
MDA-MB-231
  pIC50: < 3.28
